Experiments:
[1] = tested on: normal human knee joint chondrocytes (NHAc-kn); experiment: Elastin production test in normal human knee joint chondrocytes (dot blot); assay type: cell-based
Experimental: Normal human knee joint chondrocytes (NHAc-kn: 1.0×10^5 cells/mL) were seeded in a 24-well plate (900 μL/well, medium: CBM+0.5% FBS) and incubated under humidification condition at 37° C. in 5% CO2 atmosphere for 48 hours. The medium was exchanged and peptide VPGG and peptide VP was added (100 μL/well, final concentration: 0 to 5000 nM) and incubated under humidification condition at 37° C. in 5% CO2 atmosphere for 48 hours. From the cell culture thus obtained, supernatant was collected and dot-blotted onto a PVDF membrane. After blocking with PBST containing 5% skim milk, the membrane was washed with PBST. The membrane was reacted with rabbit anti-elastin antibody as a primary antibody, washed with PBST and reacted with HRP conjugate goat […] as a secondary antibody and washed with PBST. The membrane was reacted with a detection reagent ImmunoStar (FUJIFILM Wako Pure Chemical Corporation) and the amount of elastin production was estimated based on intensities of signals obtained.

[2] = tested on: human skin fibroblast cells; settings: known from the literature (positive control); cited from earlier work
[3] = tested on: normal human skin fibroblast cells; experiment: Proliferation test of normal human skin fibroblast cells; assay type: cell-based; settings: similar experiment with the hydrolysate
Experimental: Skin fibroblast cells cultured in a culture flask was seeded in a 96-well plate at 3,500 cells/cm^2 ([…], medium: 10% FBS DMEM). After incubating for 24 hours at 37° C. under 5% CO2 condition, the liquid medium in the wells was removed, replaced with DMEM containing 0.5% FBS and incubated for 24 hours under similar conditions. The liquid medium in the wells was removed and the wells were washed with DPBS, after which DPBS was removed. Solutions of predetermined concentrations of peptide Val-Pro-Gly-Gly (VPGG) and peptide Val-Pro-Gly-Ala (VPGA) were prepared using DMEM containing 0.5% FBS were prepared and 100 μL of the solution was added to each well. Fibroblast cells were incubated for 4 days at 37° C. under 5% CO2 condition and supernatant was recovered. The supernatant recovered was used for a measurement of amount of elastin production in Example 2. DMEM containing 0.5% FBS was added and cells were counted using cell counting kit-8 (10 μL/well) and a cell proliferation rate relative to the cell number obtained from the sample without adding the peptides.

[4] = tested on: human skin fibroblast cells; experiment: Migration activity test of normal human skin fibroblast cells; assay type: cell-based; settings: 20 hours, membrane inserts pore size 8 μm, absorbance at 560 nm
Experimental: Effect of peptide Val-Pro-Gly-Gly on a migration activity of fibroblast cells that relates to processes of recovery and regeneration of tissue and wound healing was investigated. To bottom of each well of 24-well plate of CytoSelect (registered trade mark) 24-well Cell Migration Assay Kit (Cell Biotics), DMEM medium (control), 500 μL of peptide Val-Pro-Gly-Gly or peptide Val-Pro-Gly (positive control: see “Elastin—Structure, Function and Pathology”, edited and written by Hiroyuki Ito, Elastin Study Group of Japan (not for sale), p. 124-137, 2008) dissolved in DMEM medium were added. Then, 300 μL of cell suspension of human skin fibroblast cells (P4 to 5) prepared by dispersing the cell in DMEM media (1×10^6 cells/mL) was added inside membrane inserts (pore size: 8 μm). The inserts were inserted in wells and incubated in a cell incubator at 37° C. for 20 hours (in preliminary examination, duration of incubation was also set to 6 hours). […] Cells were stained by adding 400 μL of cell stain liquid and staining for 10 minutes at room temperature. Then the inserts were washed with distilled water, dried and stain was confirmed by optical microscopic observation. […] of reaction mixture was placed in 96-well plate and absorbance at 560 nm was measured using a plate reader.

Val-Pro
effect on the elastin production in the chondrocytes [1]: promoting effect

Val-Pro-Gly
effect for promoting cell migration [2]: known to have the effect for promoting cell migration

Val-Pro-Gly-Ala (VPGA; printed: Val-Pro-Gly-Ala)
cell proliferation rate compared with hydrolysate of elastin from bonitos bulbus arteriosus [3]: higher cell proliferation rate

Val-Pro-Gly-Gly (VPGG; printed: Val-Pro-Gly-Gly)
cell proliferation rate compared with hydrolysate of elastin from bonitos bulbus arteriosus [3]: higher cell proliferation rate
effect for promoting cell migration compared with peptide Val-Pro-Gly (positive control) [4]: significantly higher effect for promoting cell migration

Source: US20190111103A1, “NOVEL PEPTIDE OR SALT THEREOF, COMPOSITION FOR ENHANCING PROLIFERATION OF FIBROBLAST CELLS AND COMPOSITION FOR ENHANCING ELASTIN PRODUCTION IN FIBROBLAST CELLS AND CHONDROCYTES CONTAINING THE SAME” (Hayashikane Sangyo Co., Ltd., priority 2017, published 2019)
